# Data from ChEMBL document CHEMBL5230160, “Chemotherapeutics for Toxoplasma gondii: Molecular Biotargets, Binding Modes, and Structure-Activity Relationship Investigations” (J Med Chem, 2021).
# pEC50, pIC50: −log10 of the molar value.
# Experiments:
# Toxoplasma gondii [1] = assay: Antiparasitic activity against Toxoplasma gondii infected in HFF cells assessed as parasitic growth inhibition incubated for 24 hrs by MTS/PMS assay; format: functional, organism-based
# Toxoplasma gondii [2] = assay: Antiparasitic activity against Toxoplasma gondii tachyzoites; format: functional, organism-based; conditions: Toxoplasma gondii; for pIC50 / IC50: read-out: IC50; for pEC50: read-out: ED50 (the source's name)
# Toxoplasma gondii [3] = assay: Antiparasitic activity against Toxoplasma gondii tachyzoites infected in mouse assessed as survival at 10 mg/kg relative to control; format: functional
# [4] = Inhibition of Toxoplasma gondii FPPS incubated for 30 mins by scintillation counting analysis
# [5] = Selectivity index, ratio of IC50 for cytotoxicity against human HeLa cells to IC50 for antiparasitic activity against Toxoplasma gondii tachyzoites infected in human HeLa cells; format: toxicity, cell-based; conditions: for selectivity ratio: read-out: Ratio IC50
# HeLa = assay: Cytotoxicity against human HeLa cells assessed as cell growth inhibition measured after 24 hrs by MTT assay; format: functional, cell-based
# Toxoplasma gondii [6] = assay: Antiparasitic activity against Toxoplasma gondii tachyzoites infected in human HeLa cells measured after 24 hrs by MTT assay; format: functional, organism-based
# Vero = assay: Cytotoxicity against African green monkey Vero cells assessed as cell growth inhibition by alamar blue assay; format: functional; conditions: Chlorocebus sabaeus, read-out: ED50 (the source's name)
# [7] = Inhibition of Toxoplasma gondii recombinant PNP
# [8] = Inhibition of Toxoplasma gondii recombinant ENR in presence of NADH by absorbance based analysis
# Toxoplasma gondii [9] = assay: Antiparasitic activity against Toxoplasma gondii infected in HFF cells by fluorescence based analysis; format: functional, organism-based
# [10] = Inhibition of Toxoplasma gondii DHFR
compound,measurement,setting,value
CCc1nc(N)nc(N)c1-c1ccc(Cl)cc1 [PYRIMETHAMINE],pIC50,Toxoplasma gondii [1],5.44
same,pIC50,Toxoplasma gondii [2],6.34
N[C@@H]1[C@H]2CN(c3nc4c(cc3F)c(=O)c(C(=O)O)cn4-c3ccc(F)cc3F)C[C@@H]12 [TROVAFLOXACIN],survival at 10 mg/kg,Toxoplasma gondii [3],90%
CCCCCCCCC[S+]([O-])CC(P(=O)(O)O)P(=O)(O)O (stereo unspecified),pIC50,[4],7.25
C[C@@H](Oc1cc(-c2cnn(C3CCNCC3)c2)cnc1N)c1c(Cl)ccc(F)c1Cl [CRIZOTINIB],pIC50,Toxoplasma gondii [2],5.40
COc1cc(-n2cc(/C=C3/C[C@@]4(C)[C@H](CC[C@]5(C)[C@@H]4CC=C4[C@@H]6[C@@H](C)[C@H](C)CC[C@]6(C(=O)O)CC[C@]45C)C(C)(C)C3=O)nn2)cc(OC)c1OC,selectivity ratio,[5],1.17
same,pIC50,"HeLa; Homo sapiens, HeLa, 24 h",3.45
same,pIC50,"Toxoplasma gondii [6]; Toxoplasma gondii, HeLa, 24 h",3.52
CC(=O)O[C@H]1C[C@@]2(C)[C@@H](C[C@@H](O)[C@H]3[C@@]4(C)CC[C@@H](O)[C@@H](C)[C@@H]4CC[C@@]32C)/C1=C(\CCC=C(C)C)C(=O)O [FUSIDIC ACID],pIC50,Toxoplasma gondii [2],5.15
same,survival at 10 mg/kg,Toxoplasma gondii [3],90%
SPIRAMYCIN,Ratio IC50,[5],0.72
same,pIC50,HeLa; hela,3.72
same,pIC50,Toxoplasma gondii [6]; hela,3.58
CCCCCCCCCCNCC(O)(P(=O)(O)O)P(=O)(O)O,pIC50,[4],6.90
N#CSCCOc1cccc2ccccc12,pEC50,Vero,< 4.30
same,pEC50,Toxoplasma gondii [2],5.50
O=P(O)(O)C(CNCCOc1cccc(Oc2ccccc2)c1)P(=O)(O)O,pEC50,Vero,< 4.30
same,pEC50,Toxoplasma gondii [2],5.62
N#CSCCOc1ccc(Oc2cccc(Oc3ccccc3Cl)c2)cc1,pEC50,Vero,< 4.30
same,pEC50,Toxoplasma gondii [2],5.67
Cc1cc(-n2c(=O)[nH]c(=O)n(C)c2=O)ccc1Oc1ccc(SC(F)(F)F)cc1 [TOLTRAZURIL],pIC50,Toxoplasma gondii [2],6.03
same,survival at 10 mg/kg,Toxoplasma gondii [3],100%
CCCCCCCCNCC(F)(P(=O)(O)O)P(=O)(O)O,pIC50,[4],7.46
N#CSCCOc1ccc(Oc2cccc(Oc3cccc(F)c3)c2)cc1,pEC50,Vero,< 4.30
same,pEC50,Toxoplasma gondii [2],5.79
S=c1[nH]nc(-c2cccs2)[nH]1,pIC50,[7],3.71
Cc1occc1C(=O)NN=C(S)Nc1ccccc1,IC50,Toxoplasma gondii [2],59 µg/mL
CCCCCCCCNCC(O)(P(=O)(O)O)P(=O)(O)O,pIC50,[4],7.41
CCCCCCNCC(O)(P(=O)(O)O)P(=O)(O)O,pIC50,[4],7.29
N#Cc1ccccc1CNc1ccc(Oc2ccc(Cl)cc2O)c(Cl)c1,pIC50,[8],7.80
same,pIC50,Toxoplasma gondii [9],< 5.00
C[C@H]1[C@H](C)CC[C@]2(C(=O)OCCn3cnnc3-c3ccc(F)cc3)CC[C@]3(C)C(=CC[C@@H]4[C@@]5(C)CC[C@H](O)C(C)(C)[C@H]5CC[C@]43C)[C@H]12,selectivity ratio,[5],1.44
same,pIC50,"HeLa; Homo sapiens, HeLa, 24 h",4.05
same,pIC50,"Toxoplasma gondii [6]; Toxoplasma gondii, HeLa, 24 h",4.29
O=c1[nH]cnc2c([C@@H]3N[C@H](CO)[C@@H](O)[C@H]3O)c[nH]c12 [FORODESINE],pIC50,[7],9.43
CO[C@H]1/C=C/O[C@@]2(C)Oc3c(C)c(O)c4c(O)c(c(/C=N/N5CCN(C6CCCC6)CC5)c(O)c4c3C2=O)NC(=O)/C(C)=C\C=C\[C@H](C)[C@H](O)[C@@H](C)[C@@H](O)[C@@H](C)[C@H](OC(C)=O)[C@@H]1C [RIFAPENTINE],survival at 10 mg/kg,Toxoplasma gondii [3],90%
CCCCCCCCCNCC(F)(P(=O)(O)O)P(=O)(O)O,pIC50,[4],7.22
CCCCCCCCCCCCCCNCC(P(=O)(O)O)P(=O)(O)O,pIC50,[4],6.53
CCCCCCCNCC(O)(P(=O)(O)O)P(=O)(O)O,pIC50,[4],< 6.00
Oc1ccc(Oc2ccc(Cl)cc2O)c(Cl)c1,pIC50,[8],8.52
same,pIC50,Toxoplasma gondii [9],5.51
N#Cc1ccc(Oc2ccc(Cl)cc2O)c(Cl)c1,pIC50,[8],7.62
C[C@H]1[C@H](C)CC[C@]2(C(=O)OCCn3cnnc3-c3ccccc3)CC[C@]3(C)C(=CC[C@@H]4[C@@]5(C)CC[C@H](O)C(C)(C)[C@H]5CC[C@]43C)[C@H]12,selectivity ratio,[5],1.15
same,pIC50,"HeLa; Homo sapiens, HeLa, 24 h",3.99
same,pIC50,"Toxoplasma gondii [6]; Toxoplasma gondii, HeLa, 24 h",4.06
C[C@H]1[C@H](C)CC[C@]2(C(=O)O)CC[C@]3(C)C(=CC[C@@H]4[C@@]5(C)C/C(=C/c6cn(-c7ccccc7I)nn6)C(=O)C(C)(C)[C@H]5CC[C@]43C)[C@H]12,selectivity ratio,[5],0.84
same,pIC50,"HeLa; Homo sapiens, HeLa, 24 h",3.64
same,pIC50,"Toxoplasma gondii [6]; Toxoplasma gondii, HeLa, 24 h",3.56
CCCc1ccc(Oc2ccc(N)cc2Cl)c(O)c1,pIC50,[8],> 7.70
same,pIC50,Toxoplasma gondii [9],5.22
CC(=O)c1cc(Oc2ccccc2)ccc1OCCSC#N,pEC50,Vero,4.12
CCCCCCCCCCCNCC(P(=O)(O)O)P(=O)(O)O,pIC50,[4],6.06
C/C(=N\Nc1nc(-c2ccc(Cl)c(Cl)c2)cs1)c1ccc(Nc2nc(N)nc(N)n2)cc1,IC50,Toxoplasma gondii [2],14.9 µg/mL
Cc1nnsc1C(=O)NNC(=S)Nc1ccc(F)cc1F,IC50,Toxoplasma gondii [2],92.3 µg/mL
CCCc1ccc(Oc2ccc(C#N)cc2Cl)c(O)c1,pIC50,[8],> 7.70
same,pIC50,Toxoplasma gondii [9],5.22
Oc1cc(Cl)ccc1Oc1ccc(CNc2ccccc2)cc1Cl,pIC50,[8],7.51
same,pIC50,Toxoplasma gondii [9],< 5.00
C[C@H]1[C@H](C)CC[C@]2(C(=O)O)CC[C@]3(C)C(=CC[C@@H]4[C@@]5(C)C/C(=C/c6cn(-c7ccccc7Br)nn6)C(=O)C(C)(C)[C@H]5CC[C@]43C)[C@H]12,selectivity ratio,[5],0.8
same,pIC50,"HeLa; Homo sapiens, HeLa, 24 h",3.62
same,pIC50,"Toxoplasma gondii [6]; Toxoplasma gondii, HeLa, 24 h",3.52
CCCCCCC[S+]([O-])CC(P(=O)(O)O)P(=O)(O)O (stereo unspecified),pIC50,[4],8.05
CCCCCNCC(O)(P(=O)(O)O)P(=O)(O)O,pIC50,[4],7.17
O=[N+]([O-])c1ccc(Oc2ccc(Cl)cc2O)c(Cl)c1,pIC50,[8],> 7.70
same,pIC50,Toxoplasma gondii [9],5.40
CCCCc1cn(Cc2ccc(Oc3ccc(Cl)cc3O)c(Cl)c2)nn1,pIC50,[8],7.37
same,pIC50,Toxoplasma gondii [9],6.60
CCCCCCCCCCNCC(P(=O)(O)O)P(=O)(O)O,pIC50,[4],7.17
Oc1cc(Cl)ccc1Oc1ccc(NCc2ccccc2)cc1Cl,pIC50,[8],7.89
same,pIC50,Toxoplasma gondii [9],6.70
N#CSCCOc1ccc(Oc2ccc(C(F)(F)F)cc2)cc1,pEC50,Vero,< 4.30
same,pEC50,Toxoplasma gondii [2],5.73
N#CSCCOc1ccc(Oc2ccncc2)cc1,pEC50,Vero,< 3.70
same,pEC50,Toxoplasma gondii [2],5.10
N#CSCCOc1ccc(Oc2cccc3ccccc23)cc1,pEC50,Toxoplasma gondii [2],5.54
COc1cc(NCc2ccc3nc(N)nc(N)c3c2C)cc(OC)c1OC [TRIMETREXATE],pIC50,[10],8.85
N#CSCCOc1ccc(Oc2ccccn2)cc1,pEC50,Vero,< 3.70
same,pEC50,Toxoplasma gondii [2],< 5.00
N#CC(c1ccc(Cl)cc1)c1c(Cl)cc(-n2ncc(=O)[nH]c2=O)cc1Cl (stereo unspecified) [DICLAZURIL],pIC50,Toxoplasma gondii [2],8.22
same,survival at 10 mg/kg,Toxoplasma gondii [3],100%
CCCc1ccc(Oc2ccc([N+](=O)[O-])cc2Cl)c(O)c1,pIC50,[8],> 7.70
same,pIC50,Toxoplasma gondii [9],5.22
N#CSCCOc1ccc(Oc2cccnc2)cc1,pEC50,Vero,3.87
same,pEC50,Toxoplasma gondii [2],5.43
N#CSCCOc1ccc2ccccc2c1,pEC50,Vero,< 4.00
same,pEC50,Toxoplasma gondii [2],5.44
O=P(O)(O)C(CSCCOc1cccc(Oc2ccccc2)c1)P(=O)(O)O,pEC50,Vero,< 4.00
same,pEC50,Toxoplasma gondii [2],6.17
Cc1nnsc1C(=O)NNC(=S)Nc1ccccc1Br,IC50,Toxoplasma gondii [2],74.9 µg/mL
O=C(NNC(=S)Nc1ccc(F)cc1)c1cccs1,IC50,Toxoplasma gondii [2],33.2 µg/mL
Nc1ncnc2c1ncn2Cc1c(F)cccc1Cl [ARPRINOCID],pIC50,Toxoplasma gondii [2],5.15
same,survival at 10 mg/kg,Toxoplasma gondii [3],100%
CCCCCCCC[S+]([O-])CC(P(=O)(O)O)P(=O)(O)O (stereo unspecified),pIC50,[4],7.80
N#CSCCOc1ccc(Oc2cccc(C(F)(F)F)c2)cc1,pEC50,Vero,< 4.30
same,pEC50,Toxoplasma gondii [2],5.78
N#CSCCOc1ccc(Oc2ccc3ccccc3c2)cc1,pEC50,Vero,3.98
same,pEC50,Toxoplasma gondii [2],5.65
CCCCCCC[S+](C)CC(P(=O)(O)O)P(=O)(O)O (stereo unspecified),pIC50,[4],7.89
CCCCCCCCCCCCNCC(P(=O)(O)O)P(=O)(O)O,pIC50,[4],7.03
CCCCCCCCCNCC(P(=O)(O)O)P(=O)(O)O,pIC50,[4],6.36
N#CSCCOc1ccc(Oc2ccccc2)cc1,pEC50,Vero,4.08
same,pEC50,Toxoplasma gondii [2],5.32
O=C(Nc1ccc([N+](=O)[O-])cc1Cl)c1cc(Cl)ccc1O [NICLOSAMIDE],MIC50,Toxoplasma gondii [2],0.2 µM
C[C@H]1[C@H](C)CC[C@]2(C(=O)O)CC[C@]3(C)C(=CC[C@@H]4[C@@]5(C)C/C(=C/c6cn(-c7ccccc7Cl)nn6)C(=O)C(C)(C)[C@H]5CC[C@]43C)[C@H]12,selectivity ratio,[5],1.95
same,pIC50,"HeLa; Homo sapiens, HeLa, 24 h",3.33
same,pIC50,"Toxoplasma gondii [6]; Toxoplasma gondii, HeLa, 24 h",3.62
Oc1cc(Cl)ccc1Oc1ccc(Cn2ccnn2)cc1Cl,pIC50,[8],7.59
same,pIC50,Toxoplasma gondii [9],6.60
CCCCCCCCCC[S+]([O-])CC(P(=O)(O)O)P(=O)(O)O (stereo unspecified),pIC50,[4],< 5.00
Cc1cc(-n2c(=O)[nH]c(=O)n(C)c2=O)ccc1Oc1ccc(S(=O)(=O)C(F)(F)F)cc1 [PONAZURIL],pIC50,Toxoplasma gondii [2],8.22
same,survival at 10 mg/kg,Toxoplasma gondii [3],100%
